The values that follow come from publication PMC6880826 (Beilstein Journal of Organic Chemistry, 2019).

For series [1], the target named is T1, Notum(81-451 Cys330Ser) (Homo sapiens, UniProt Q6P988, C330S).
T1 sequence (Q6P988 81-451 C330S): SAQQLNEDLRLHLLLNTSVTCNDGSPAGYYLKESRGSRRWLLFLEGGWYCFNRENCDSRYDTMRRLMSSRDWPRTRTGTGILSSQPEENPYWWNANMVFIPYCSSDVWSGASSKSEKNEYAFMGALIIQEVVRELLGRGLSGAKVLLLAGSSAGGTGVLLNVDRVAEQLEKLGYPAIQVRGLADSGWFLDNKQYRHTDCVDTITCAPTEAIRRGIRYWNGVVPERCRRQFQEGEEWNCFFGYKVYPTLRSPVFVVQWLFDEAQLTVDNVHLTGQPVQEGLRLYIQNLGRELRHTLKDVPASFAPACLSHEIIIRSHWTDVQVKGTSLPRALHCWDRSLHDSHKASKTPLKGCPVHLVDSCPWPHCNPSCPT
As to the kind of experiment: Notum OPTS fluorescence inhibition assay.

A short description of series [2]: Metabolic stability in mouse liver microsomes (MLM). In kind it is in vitro ADME.
In series [3] the test system is MDCK-MDR1 monolayer. As to the kind of experiment: MDCK-MDR1 monolayer permeability / P-gp efflux. In kind it is in vitro ADME. Conditions: for efflux ratio: Table S4; for MDCK-mdr1 ER / MDCK-mdr1 AB / MDCK-mdr1 BA: csv file; for MDCK-mdr1 AB: AB direction; for MDCK-mdr1 BA: BA direction.
Series [4] relates to P-gp (MDR1). As to the kind of experiment: MDCK-MDR1 monolayer permeability / P-gp efflux. In kind it is in vitro ADME. Conditions: dog; for Papp: MDCK-MDR1, Table S4; for MDCK-MDR1 AB Papp: Table S4; for efflux ratio: MDCK-MDR1, csv file, read-out: MDCK-mdr1 ER.
Series [5] is described as follows: Mouse pharmacokinetics, plasma and brain, oral dose. In kind it is in vivo, CD1 mouse. Conditions: p.o. 10 mg/kg. The text has this: The route of administration and dose were selected to most closely match relevant published mouse disease model studies. […] Table S1: Study design summary S8 (1 picture or pasted object on this page, not shown here)
The mark [6] stands for this setting: Table S4, mouse liver microsomes.
[7] abbreviates: AB direction, read-out: MDCK-MDR1 AB Papp.
[8] abbreviates: BA direction, read-out: MDCK-MDR1 BA Papp.

Where two headings read alike, the source gives them in different places.

By IC50 is commonly meant the concentration that inhibits the measured activity by half. Low readings indicate greater potency, high ones weaker potency. For `O=C(CSc1ncnc2c(C3CC3)c(Cl)sc12)N1CCCCC1` [Compound 17b], in series [1], the half-inhibitory concentration (IC50) is 91 nM.
The same measure, in the same setting: the same measure for `O=C(CSc1ncnc2c(C3CC3)c(Cl)sc12)N1CCc2ncccc2C1` [Compound 17l]: 4.6 nM.
As usually defined, the Papp is the rate of passage across a membrane or cell layer, normalised by area and donor concentration. On to `O=C1CN(C(=O)CSc2ncnc3c(C4CC4)c(Cl)sc23)CCN1` [Compound 17i], for which the MLM Cli in series [2] (setting [6]) is 24 µL/min/mg. For the same compound, the “MLM Cli” value in series [2] (csv file) turned out to be 24 µL/min/mg. Besides, in series [3], the efflux ratio worked out at 8.2, the “MDCK-mdr1 ER” value was found to be 8.2, the “MDCK-mdr1 AB” value was 7.9 x10–6 cm/s and the “MDCK-mdr1 BA” value worked out at 65 x10–6 cm/s. For the same compound, the Papp in series [4] (setting [7]) was 7.9 ×10⁻⁶ cm/s. Besides, in series [4] (setting [8]), the Papp stood at 65 ×10⁻⁶ cm/s. The compound also gave an IC50 in series [1] of 7.1 nM.
On to `O=C1CN(C(=O)CSc2ncnc3c(C4CC4)c(Cl)sc23)CN1` [Compound 17g], for which the MLM Cli in series [2] (setting [6]) was found to be 19 µL/min/mg. Moreover, the “MLM Cli” value in series [2] (csv file) amounted to 19 µL/min/mg. Besides, in series [3], the efflux ratio stood at 3.7, the “MDCK-mdr1 ER” value is given as 3.7, the “MDCK-mdr1 AB” value is recorded as 3.8 x10–6 cm/s and the “MDCK-mdr1 BA” value is listed as 14 x10–6 cm/s. The compound further had an MDCK-MDR1 AB Papp in series [4] (AB direction) of 3.8 ×10⁻⁶ cm/s. Besides, the Papp in series [4] (setting [8]) worked out at 14 ×10⁻⁶ cm/s. Further, in series [1], half-maximal inhibition (IC50) required 1.5 nM.
With `O=C(CSc1ncnc2c(C3CC3)c(Cl)sc12)N1CC2COCC2C1` (stereo not shown) [Compound 17e], the MLM Cli in series [2] (setting [6]) and in series [2] (csv file) was greater than 500 µL/min/mg in each case. The compound also came in with an IC50 in series [1] of 10 nM.
Regarding `O=C(CSc1ncnc2c(C3CC3)c(Cl)sc12)N1CCn2nncc2C1` [Compound 17r], the MLM Cli in series [2] (setting [6]) and in series [2] (csv file) was 110 µL/min/mg each time. Besides, the efflux ratio in series [3] and in series [4] was 1.1 throughout. Further, in series [3], the “MDCK-mdr1 AB” value worked out at 26 x10–6 cm/s. The “MDCK-mdr1 BA” value in series [3] was found to be 28 x10–6 cm/s. In addition, the values for the Papp in series [4] (setting [7]) and in series [4] (setting [8]) were 26 ×10⁻⁶ cm/s and 28 ×10⁻⁶ cm/s, respectively. Also, it took 2.4 nM to reach half-maximal inhibition in series [1] (IC50).
Consider `O=C1CCN(C(=O)CSc2ncnc3c(C4CC4)c(Cl)sc23)CCN1` [Compound 17k], for which the concentration for half-maximal inhibition (IC50) in series [1] was 49 nM.
Still for that read-out and setting: to `O=C(CSc1ncnc2c(C3CC3)c(Cl)sc12)N1CCc2[nH]cnc2C1` [Compound 17o] belongs 2.3 nM.
As to `O=C(CSc1ncnc2c(C3CC3)c(Cl)sc12)N1CCn2c(nnc2C(F)(F)F)C1` [Compound 17q], the MLM Cli in series [2] (setting [6]) and in series [2] (csv file) was 190 µL/min/mg in each case. Further, the efflux ratio in series [3] and in series [4] was 2.8 throughout. In addition, the “MDCK-mdr1 AB” value in series [3] is 12 x10–6 cm/s. Also, the “MDCK-mdr1 BA” value in series [3] turned out to be 34 x10–6 cm/s. For the same compound, the Papp in series [4] (setting [7]) came to 12 ×10⁻⁶ cm/s; in series [4] (setting [8]), 34 ×10⁻⁶ cm/s. The compound also gave an IC50 in series [1] of 8 nM.
For `CN(C)C(=O)CSc1ncnc2c(C3CC3)c(Cl)sc12` [Compound 17a], the IC50 in series [1] amounted to 7.5 nM. This counts as single-digit nanomolar.
On to `O=C1CN(C(=O)CSc2ncnc3c(C4CC4)c(Cl)sc23)CCCN1` [Compound 17j], for which the IC50 in series [1] is 36 nM.
As to `O=C(CSc1ncnc2c(C3CC3)c(Cl)sc12)N1CCn2cncc2C1` [Compound 17n], the MLM Cli in series [2] (setting [6]) and in series [2] (csv file) was 49 µL/min/mg throughout. Also, the efflux ratio in series [3] and in series [4] was 3.4 throughout. The “MDCK-mdr1 AB” value in series [3] is given as 9 x10–6 cm/s. Also, the “MDCK-mdr1 BA” value in series [3] turned out to be 31 x10–6 cm/s. The Papp in series [4] (setting [7]) is 9 ×10⁻⁶ cm/s; in series [4] (setting [8]), 31 ×10⁻⁶ cm/s. Further, the IC50 in series [1] was determined as 2.5 nM.
In general, Cmax refers to the maximum level reached in the sampled fluid or tissue. The Tmax is the time at which the peak concentration occurs. By half-life is commonly meant the time needed for the level to fall by half in the phase considered. Lower therefore signals rapid decline. By AUC(0-inf) is commonly meant total exposure, with the tail of the curve extrapolated. A high value points to more exposure. By AUC(0-t) is commonly meant exposure summed from dosing to a finite time, without extrapolation to infinity. Regarding `O=C(O)CSc1ncnc2c(C3CC3)c(Cl)sc12` [Compound 1], the “Cli in mouse liver microsomes (MLM)” value in series [2] is reported as 1.0 μL/min/mg protein. Further, the “MLM Cli” value in series [2] (setting [6]) was 1e+06 µL/min/mg. In addition, in series [5] (CD1, po, brain), the Cmax came out at 500 ng/g, the Tmax came out at 2 h and the half-life was 7.1 h. Moreover, in series [5] (CD1, po, plasma), the AUC(0-inf) stood at 354 µg·h/mL, the AUC(0-t) was determined as 303 µg·h/mL, the concentration peaked (Cmax) at 35400 ng/mL and the time to peak (Tmax) stood at 2 h. For the same compound, in series [5] (CD1, po, plasma), the half-life was 8.8 h. In series [5] (brain), the AUC0→t is given as 3,700 h·ng/g and the “AUC0→∞” value was 4,080 h·ng/g.
`O=C(CSc1ncnc2c(C3CC3)c(Cl)sc12)N1CCS(=O)(=O)CC1` [Compound 17d]: the IC50 in series [1] was 48 nM.
On to `O=C(CSc1ncnc2c(C3CC3)c(Cl)sc12)N1CCn2cnnc2C1` [Compound 17p], for which the MLM Cli in series [2] (setting [6]) was determined as 29 µL/min/mg. Also, in series [2] (csv file), the “MLM Cli” value worked out at 29 µL/min/mg. Moreover, in series [3], the efflux ratio worked out at 98, the “MDCK-mdr1 ER” value came out at 98, the “MDCK-mdr1 AB” value was found to be 0.95 x10–6 cm/s and the “MDCK-mdr1 BA” value stood at 93 x10–6 cm/s. Moreover, the MDCK-MDR1 AB Papp in series [4] (AB direction) turned out to be 0.95 ×10⁻⁶ cm/s. Besides, the apparent permeability (Papp) in series [4] (setting [8]) worked out at 93 ×10⁻⁶ cm/s. In series [1], this compound came in with a half-maximal inhibitory concentration (IC50) of 1.2 nM.
In the case of `O=C(CSc1ncnc2c(C3CC3)c(Cl)sc12)N1CCn2ccnc2C1` [Compound 17m], the MLM Cli in series [2] (setting [6]) and in series [2] (csv file) was 290 µL/min/mg each time. Besides, the efflux ratio in series [3] and in series [4] was 1.2 throughout. Further, in series [3], the “MDCK-mdr1 AB” value turned out to be 21 x10–6 cm/s. For the same compound, the “MDCK-mdr1 BA” value in series [3] amounted to 25 x10–6 cm/s. Further, the Papp in series [4] (setting [7]) amounted to 21 ×10⁻⁶ cm/s; in series [4] (setting [8]) it was 25 ×10⁻⁶ cm/s. Besides, in series [1], 2.7 nM corresponded to half-maximal inhibition (IC50).
In series [2] (setting [6]), `O=C(CSc1ncnc2c(C3CC3)c(Cl)sc12)N1CCOCC1` [Compound 17c] gave an MLM Cli greater than 500 µL/min/mg. Also, the “MLM Cli” value in series [2] (csv file) was greater than 500 µL/min/mg. Further, in series [3], the efflux ratio is given as 0.95, the “MDCK-mdr1 ER” value was determined as 0.95, the “MDCK-mdr1 AB” value amounted to 40 x10–6 cm/s and the “MDCK-mdr1 BA” value worked out at 38 x10–6 cm/s. The Papp in series [4] (setting [7]) amounted to 40 ×10⁻⁶ cm/s. In addition, the Papp in series [4] (setting [8]) stood at 38 ×10⁻⁶ cm/s. The IC50 in series [1] was 18 nM.
As to `CN1CN(C(=O)CSc2ncnc3c(C4CC4)c(Cl)sc23)CC1=O` [Compound 17h], the MLM Cli in series [2] (setting [6]) and in series [2] (csv file) was 45 µL/min/mg in each case. The efflux ratio in series [3] and in series [4] was 2.2 each time. Also, the “MDCK-mdr1 AB” value in series [3] amounted to 6 x10–6 cm/s. The “MDCK-mdr1 BA” value in series [3] worked out at 13 x10–6 cm/s. For the same compound, the Papp in series [4] (setting [7]) stood at 6 ×10⁻⁶ cm/s; in series [4] (setting [8]) it was 13 ×10⁻⁶ cm/s. The compound also showed a half-maximal inhibitory concentration (IC50) in series [1] of 1.5 nM.
With `O=C(CSc1ncnc2c(C3CC3)c(Cl)sc12)N1CC2(COC2)C1` [Compound 17f], the MLM Cli in series [2] (setting [6]) and in series [2] (csv file) was 100 µL/min/mg throughout. This compound gave an IC50 in series [1] of 10 nM.
